Results on eight compounds are retold here after US10144715B2, “Piperazine derivatives as liver X receptor modulators” (priority 2014, dated 2018).

One may read the EC50 as the concentration giving half of the maximal effect. As a reminder, the Ki is a dissociation constant, usually derived from enzyme kinetics or from competition with a known ligand.

Read-outs that look alike come from different tables or passages of the source. Where only a bound is given, the exact number is not on record here.

Assay [1] deals with Gal4 DNA binding domain fused to the LBD of LXRβ in HEK293 cells (Homo sapiens (Human), UniProt P55055). The experiment in a line: cell-based.
Gal4 DNA binding domain fused to the LBD of LXRβ in HEK293 cells, sequence (P55055 222-460 limits assumed): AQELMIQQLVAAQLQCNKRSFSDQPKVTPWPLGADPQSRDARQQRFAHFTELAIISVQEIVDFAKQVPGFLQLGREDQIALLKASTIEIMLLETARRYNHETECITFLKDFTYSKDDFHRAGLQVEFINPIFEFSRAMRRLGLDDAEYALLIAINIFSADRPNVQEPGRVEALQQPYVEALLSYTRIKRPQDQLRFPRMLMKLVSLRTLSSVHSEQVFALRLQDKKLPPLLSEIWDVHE
For assay [2], the target named is T1, LXR β LBD protein (Homo sapiens (Human), UniProt P55055). The experiment in a line: biochemical. The following applies: for EC50: read-out: FRET LXRβ EC50. Format: biochemical. The protocol: Two μL of the DMSO solutions were transferred to the plate and 38 μL of 10 nM LXRα-LBD or LXRβ-LBD (2×) were added immediately to the wells. The plate was shaken for 5 min at rt on an orbital micro shaker (DPC MicroMix® 5), after which 40 μL of 200 nM fluorescein-SRC2-3 peptide and 20 nM Terbium-anti-GST-antibody (Cat# PV3550, Life Technologies, Grand Island, N.Y.) solution (4×) were added to all. The plate was sealed and shaken for 2 min at rt, and incubated at rt for 2 h without agitation. […] The delay and window times were set at 100 and 200 microseconds, respectively. […] The percent control vs. compound concentration data were fit into a four-parameter model, and EC50 values were calculated from the fit as the concentrations corresponding to the inflection points on the concentration-response curves.
Target sequence in this assay (P55055 222-460): as the sequence (P55055 222-460 limits assumed) above

For assay [3], the target named is Gal4 DNA binding domain fused to the LBD of LXRα in HEK293 cells (Homo sapiens (Human), UniProt Q13133). As to the kind of experiment: LXR luciferase transcriptional reporter gene assay, agonist mode, LXRα. Format: cell-based.
Gal4 DNA binding domain fused to the LBD of LXRα in HEK293 cells, sequence (Q13133 209-447): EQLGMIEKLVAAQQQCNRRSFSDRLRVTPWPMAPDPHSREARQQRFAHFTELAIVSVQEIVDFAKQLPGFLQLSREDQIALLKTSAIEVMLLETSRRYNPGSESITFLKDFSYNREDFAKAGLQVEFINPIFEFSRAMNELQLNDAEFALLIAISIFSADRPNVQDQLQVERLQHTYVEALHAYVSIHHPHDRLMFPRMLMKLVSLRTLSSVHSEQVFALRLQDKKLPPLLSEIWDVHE
For assay [4], the target named is LXR α LBD protein (Homo sapiens (Human), UniProt Q13133). The experiment in a line: Human LXRα coactivator recruitment FRET assay, agonist mode. It counts as biochemical. In short, it runs like this: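 LXRα- or LXRβ-LBD at 10 nM (2×) mixed with compound in DMSO, then fluorescein-SRC2-3 peptide 200 nM and Tb-anti-GST antibody 20 nM (4×) added; 2 h at rt. Time-resolved FRET read, 100 µs delay, 200 µs window; EC50 from four-parameter fit of percent control.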
LXR α LBD protein, sequence (Q13133 209-447): as above

Assay [5] has as its target T1, LXR β LBD protein. As to the kind of experiment: biochemical. It counts as binding. Conditions: read-out: LXRβ Binding Ki.
Target sequence in this assay (P55055 222-460 limits assumed): as the sequence (P55055 222-460 limits assumed) above
The mark [6] stands for this setting: agonist mode, read-out: Cell LXRβ EC50.
[7] abbreviates: agonist mode, read-out: Cell LXRα EC50.

As for `CC(C)[C@@H]1CN(c2ccc(F)c(S(C)(=O)=O)c2)CCN1C(=O)OC(C)(C)C` [2-1, tert-butyl (R)-4-(4-fluoro-3-(methylsulfonyl)phenyl)-2-isopropylpiperazine-1-carboxylate], the EC50 in assay [1] came out at 684 nM; in assay [2] (agonist mode), 56 nM; in assay [3] (read-out: Cell LXRα EC50), 5250 nM; in assay [4] (agonist mode), 901 nM. The “Cell LXRβ efficacy” value in assay [1] (agonist mode) is 684 (36) %. The “FRET LXRβ efficacy” value in assay [2] (agonist mode) worked out at 74%. Further, the “Cell LXRα efficacy” value in assay [3] is 5252 (61) %. Further, in assay [4] (agonist mode), the “FRET LXRα efficacy” value came out at 48%. In addition, in assay [5], the Ki stood at 209 nM.
With `Cc1ccc(CN2CCN(c3cccc(S(C)(=O)=O)c3)C[C@H]2c2ccccc2)cc1` (single isomer, unassigned) [46-5], the EC50 in assay [1] was greater than 20000 nM; in assay [2], 7160 nM; in assay [3] (read-out: Cell LXRα EC50), greater than 20000 nM; in assay [4] (agonist mode), greater than 50000 nM. The “FRET LXRβ efficacy” value in assay [2] is listed as 7159 (57) %.
Consider “tert-butyl 2-methyl-4-(3-(methylsulfonyl)phenyl)-2-phenylpiperazine-1-carboxylate [1-10]”, for which the EC50 in assay [1] (setting [6]) was greater than 20000 nM; in assay [2] (agonist mode) it was 500 nM; in assay [3] (read-out: Cell LXRα EC50), greater than 20000 nM; in assay [4] (agonist mode), 3530 nM. In assay [2] (agonist mode), the “FRET LXRβ efficacy” value is listed as 31%. In addition, the “FRET LXRα efficacy” value in assay [4] (agonist mode) turned out to be 28%.
As to `CS(=O)(=O)c1cccc(N2CCN(Cc3ccc(C(F)(F)F)cc3)[C@@H](c3ccccc3)C2)c1` (single isomer, unassigned) [46-15], in assay [1], the “Cell LXRβ efficacy” value is listed as 720 (26) % and the EC50 stood at 720 nM. For the same compound, in assay [2], the “FRET LXRβ efficacy” value was 418 (45) % and the EC50 turned out to be 418 nM. In addition, in assay [3], the “Cell LXRα efficacy” value is 2993 (28) %. The EC50 in assay [3] (setting [7]) amounted to 2990 nM. In addition, in assay [4] (agonist mode), the EC50 is 1520 nM and the “FRET LXRα efficacy” value came out at 28%. Further, in assay [5], the Ki amounted to 158 nM.
`CS(=O)(=O)c1cccc(N2CCN(Cc3ccc(C(F)(F)F)c(F)c3)[C@H](c3ccccc3)C2)c1` (single isomer, unassigned) [46-25]: the EC50 was 2560 nM in assay [1], 18000 nM in assay [2], greater than 20000 nM in assay [3] (setting [7]) and greater than 50000 nM in assay [4] (agonist mode). Moreover, the “Cell LXRβ efficacy” value in assay [1] (agonist mode) is 2557 (13) %. For the same compound, the “FRET LXRβ efficacy” value in assay [2] (agonist mode) is on record as 17972 (116) %.
As to “tert-butyl 2-cyclohexyl-4-(3-(methylsulfonyl)phenyl)piperazine-1-carboxylate [1-11]”, in assay [1] (agonist mode), the “Cell LXRβ efficacy” value turned out to be 2%. The EC50 in assay [1] (setting [6]) turned out to be 15700 nM; in assay [2] (agonist mode), 340 nM; in assay [3] (read-out: Cell LXRα EC50), 16300 nM; in assay [4] (agonist mode), 19100 nM. In addition, the “FRET LXRβ efficacy” value in assay [2] (agonist mode) was determined as 25%. The “Cell LXRα efficacy” value in assay [3] is 16278 (16) %. Besides, the “FRET LXRα efficacy” value in assay [4] (agonist mode) worked out at 27%.
`CS(=O)(=O)c1cccc(N2CCN(C[C@H]3CC[C@@H](C(F)(F)F)CC3)[C@@H](c3ccc(F)cc3)C2)c1` [Cpd No 48-43, (S)-2-(4-fluorophenyl)-4-(3-(methylsulfonyl)phenyl)-1-(((1s,4R)-4-(trifluoromethyl)cyclohexyl)methyl)piperazine]: in assay [1], the “Cell LXRβ efficacy” value is 47 (32) % and the EC50 came to 47 nM. Also, in assay [2], the “FRET LXRβ efficacy” value is given as 27 (43) % and the EC50 worked out at 27 nM. The “Cell LXRα efficacy” value in assay [3] is reported as 240 (54) %. Also, in assay [3] (setting [7]), the EC50 was 240 nM. In addition, in assay [4] (agonist mode), it took 207 nM to reach a half-maximal effect (EC50) and the “FRET LXRα efficacy” value is listed as 48%. The Ki in assay [5] is 15 nM.
As to `CS(=O)(=O)c1cccc(N2CCN(Cc3ccc(OC(F)F)cc3)[C@H](c3ccccc3)C2)c1` [46-10, (R)-1-(4-(difluoromethoxy)benzyl)-4-(3-(methylsulfonyl)phenyl)-2-phenylpiperazine], the EC50 was greater than 20000 nM in assay [1], 25000 nM in assay [2], greater than 20000 nM in assay [3] and 40700 nM in assay [4] (agonist mode). The “FRET LXRβ efficacy” value in assay [2] was 24999 (94) %. Besides, the “FRET LXRα efficacy” value in assay [4] is 40680 (55) %.
